How the values were obtained:
Assay type in all cases: cell-based
delta opioid receptor [1] = biological target: T1, delta opioid receptor (Mus musculus, UniProt P32300); test: Comparison as delta antagonist with ICI 174864 and M8008
delta opioid receptor [2] = biological target: T1, delta opioid receptor; test: Antagonism of DADLE (delta agonist) in the mouse vas deferens (MVD) preparation; design: Both vasa deferentia were dissected out of mice; from tissue; host or cells: mouse vas deferens; key to Ke, DADLE: No agonist antagonism observed; settings: for Kb: compound 100 or 200 nM, 15 min incubation, read-out: Ke, DADLE; for relative delta antagonist potency: compared within the series
Method: (§1) The organ bath was maintained at 37° C.
The results of these bioassays are summarized on Table IV, below.

mu opioid receptor = mu opioid receptor (Cavia porcellus, UniProt A0ACM8Q262); test: Antagonism of morphine (mu agonist) in the guinea pig ileum (GPI) preparation; design: key to Ke, M: No agonist antagonism observed; settings: for Kb: compound 100 or 200 nM, 15 min incubation, read-out: Ke
Method: (§2) 1. Guinea Pig Ileal Longitudinal Muscle (GPI). Ilea from guinea pigs were taken approximately 10 cm from the ileocaecal junction, and a strip of longitudinal muscle with the myenteric plexus attached was prepared by method of Rang et al., Brit. J. Pharmacol., 22, 356 (1964), the disclosure of which is incorporated by reference herein. A 1 cm portion of this strip was then mounted between two platinum electrodes placed in a 10 ml organ bath and connected to an isometric transducer; contractions were recorded on a polygraph. Contractions of the ileal strip were initiated by supramaximal rectangular pulses in all preparations (80 V of 0.5 ms duration at a frequency of 0.1 Hz). Krebs bicarbonate solution containing 1.25 μM chlorpheniramine maleate was the bathing solution and was continuously bubbled with 95% O2 and 5% CO2. The organ bath was maintained at 36°-37° C. The longitudinal muscle strip was allowed to equilibrate with continuous stimulation for a minimum of 90 min.

kappa opioid receptor = biological target: T2, kappa opioid receptor (Cavia porcellus, UniProt P41144); test: Antagonism of ethylketazocine (kappa agonist) in the guinea pig ileum (GPI) preparation; design: key to Ke, EK: No agonist antagonism observed; settings: for Kb: compound 100 or 200 nM, 15 min incubation, read-out: Ke, EK
T2 construct: a strip of longitudinal muscle with the myenteric plexus attached was prepared; from tissue; host or cells: guinea pig ileum longitudinal muscle with myenteric plexus
Method: as §2

[3] = tested on: mouse vas deferens (MVD) and guinea pig ileum (GPI) preparations; test: Agonist activity in the MVD and GPI preparations
Method: as §2, §1

[4] = compound 7 tested at 5 nM or less

T1 sequence (P32300 whole entry): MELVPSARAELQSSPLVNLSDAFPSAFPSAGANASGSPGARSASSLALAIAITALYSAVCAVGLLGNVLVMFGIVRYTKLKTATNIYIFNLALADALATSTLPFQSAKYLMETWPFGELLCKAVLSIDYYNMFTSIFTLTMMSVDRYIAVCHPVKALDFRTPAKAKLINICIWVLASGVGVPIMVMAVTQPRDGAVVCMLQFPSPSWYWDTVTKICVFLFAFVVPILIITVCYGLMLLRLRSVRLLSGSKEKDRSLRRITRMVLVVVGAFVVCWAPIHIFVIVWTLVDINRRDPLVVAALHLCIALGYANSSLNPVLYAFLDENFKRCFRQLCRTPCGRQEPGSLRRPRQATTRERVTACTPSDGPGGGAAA
T2 sequence (P41144 whole entry): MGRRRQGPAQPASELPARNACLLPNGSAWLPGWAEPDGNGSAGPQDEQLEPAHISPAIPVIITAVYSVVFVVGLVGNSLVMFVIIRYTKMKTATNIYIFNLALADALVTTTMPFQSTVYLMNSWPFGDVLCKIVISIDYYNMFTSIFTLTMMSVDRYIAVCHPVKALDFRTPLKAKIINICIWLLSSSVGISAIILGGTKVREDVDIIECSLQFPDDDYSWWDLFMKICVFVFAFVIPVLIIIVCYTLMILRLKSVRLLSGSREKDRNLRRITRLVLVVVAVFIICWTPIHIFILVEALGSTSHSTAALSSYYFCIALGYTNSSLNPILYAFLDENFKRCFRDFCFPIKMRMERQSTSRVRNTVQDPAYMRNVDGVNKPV
Chain of mu opioid receptor (A0ACM8Q262 1-400): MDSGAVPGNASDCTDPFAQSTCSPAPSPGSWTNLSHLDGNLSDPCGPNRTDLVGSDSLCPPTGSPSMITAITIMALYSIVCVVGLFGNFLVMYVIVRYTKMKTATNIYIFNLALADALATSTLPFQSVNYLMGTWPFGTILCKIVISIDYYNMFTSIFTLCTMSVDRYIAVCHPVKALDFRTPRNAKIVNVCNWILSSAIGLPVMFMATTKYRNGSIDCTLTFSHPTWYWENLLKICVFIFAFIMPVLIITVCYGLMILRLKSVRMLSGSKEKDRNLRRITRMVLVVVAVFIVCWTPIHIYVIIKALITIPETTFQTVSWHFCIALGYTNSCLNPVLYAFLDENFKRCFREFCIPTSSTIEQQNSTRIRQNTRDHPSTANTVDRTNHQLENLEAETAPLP

Row | Compound | Kb (delta opioid receptor [2]; agonist DADLE, MVD) [nM] | relative delta antagonist potency (delta opioid receptor [2]) | Kb (mu opioid receptor) [nM] | Kb (kappa opioid receptor) [nM] | also measured
1 | Oc1ccc2c3c1O[C@H]1c4[nH]c5ccccc5c4C[C@@]4(O)[C@@H](C2)N(CC2CC2)CC[C@]314 [Compound 1, 17-Cyclopropylmethyl-6,7-dehydro-4,5α-epoxy-3,14-dihydroxy-6,7,2',3'-indolomorphinan] | 0.22 | an order of magnitude more potent than its substituted congeners | – | – | potency compared with ICI 174864 (delta opioid receptor [1]): considerably more potent than the peptide delta antagonist, ICI 174864; potency relative to the peptide delta antagonist ICI 174864 (delta opioid receptor [1]; in one assay): at least 30 times; antagonism of the effect of the delta agonist DADLE / delta antagonist activity (delta opioid receptor [2]): highly active delta antagonist
2 | Cn1c2c(c3ccccc31)C[C@@]1(O)[C@H]3Cc4ccc(O)c5c4[C@@]1(CCN3CC1CC1)[C@H]2O5 [Compound 2] | 1.5 | reduction of antagonist potency | 12.5 | 22.2 | –
3 | Oc1ccc2c3c1O[C@H]1c4[nH]c5ccc(F)cc5c4C[C@@]4(O)[C@@H](C2)N(CC2CC2)CC[C@]314 [Compound 3] | 2 | – | 61.7 | 46.2 | –
4 | COc1ccc2[nH]c3c(c2c1)C[C@@]1(O)[C@H]2Cc4ccc(O)c5c4[C@@]1(CCN2CC1CC1)[C@H]3O5 [Compound 4] | 5.7 | – | – | 12.6 | –
5 | Cc1ccc2[nH]c3c(c2c1)C[C@@]1(O)[C@H]2Cc4ccc(O)c5c4[C@@]1(CCN2CC1CC1)[C@H]3O5 [Compound 5] | 4.2 | – | > 160 | > 250 | –
6 | O=[N+]([O-])c1ccc2[nH]c3c(c2c1)C[C@@]1(O)[C@H]2Cc4ccc(O)c5c4[C@@]1(CCN2CC1CC1)[C@H]3O5 [Compound 6] | 168 | – | 92 | ≥ 200 | –
7 | CN1CC[C@]23c4c5ccc(O)c4O[C@H]2c2[nH]c4ccccc4c2C[C@@]3(O)[C@H]1C5 [Compound 7] | – | – | – | – | agonist activity [3]: partial agonist activity; relative agonist potency ([3]; compared with the N-cyclopropyl analogues): substantially more potent as an agonist than the N-cyclopropyl analogues; Ke, M (mu opioid receptor; [4]): e; Ke, DADLE (delta opioid receptor [2]; agonist DADLE, MVD, compound 7 tested at 5 nM or less): e; Ke, EK (kappa opioid receptor; [4]): e
8 | Oc1ccc2c3c1O[C@H]1c4oc5ccccc5c4C[C@@]4(O)[C@@H](C2)N(CC2CC2)CC[C@]314 [Compound 8, 6,7,2',3'-Benzofurano-17-cyclopropylmethyl-6,7-dehydro-3,14-dihydroxy-4,5α-epoxymorphinan] | 1.8 | less potent | 30.8 | 50.8 | antagonism of the effect of the delta agonist DADLE / delta antagonist activity (delta opioid receptor [2]): retains substantial delta antagonist activity; relative delta selectivity (delta opioid receptor [2]; compared with compound 1): less selective than 1
9 | Oc1ccc2[nH]c3c(c2c1)C[C@@]1(O)[C@H]2Cc4ccc(O)c5c4[C@@]1(CCN2CC1CC1)[C@H]3O5 [Compound 9] | – | – | – | 68.5 | –
10 | Oc1ccc2c3c1O[C@H]1c4[nH]c5cccc(F)c5c4C[C@@]4(O)[C@@H](C2)N(CC2CC2)CC[C@]314 [Compound 10] | 5.5 | – | > 125 | > 170 | –
11 | Oc1ccc2c3c1O[C@H]1c4[nH]c5c(F)cccc5c4C[C@@]4(O)[C@@H](C2)N(CC2CC2)CC[C@]314 [Compound 11] | 0.35 | – | 5.3 | > 330 | –
12 | Cc1cccc2c3c([nH]c12)[C@@H]1Oc2c(O)ccc4c2[C@@]12CCN(CC1CC1)[C@H](C4)[C@]2(O)C3 [Compound 13] | 1.5 | – | 19.1 | > 330 | –
13 | COc1cccc2c3c([nH]c12)[C@@H]1Oc2c(O)ccc4c2[C@@]12CCN(CC1CC1)[C@H](C4)[C@]2(O)C3 [Compound 14] | 6.6 | – | 35 | – | –
14 | Oc1ccc2c3c1O[C@H]1c4nc5ccccc5nc4C[C@@]4(O)[C@@H](C2)N(CC2CC2)CC[C@]314 [Compound 16, 6,7,2',3'-benzopyrazino-17-cyclopropylmethyl-6,7-dehydro-3,14-dihydroxy-4,5α-epoxymorphinan] | 1.4 | A similar relationship was observed | – | 13.4 | –
15 | Oc1ccc2c3c1O[C@H]1c4nc5ccccc5cc4C[C@@]4(O)[C@@H](C2)N(CC2CC2)CC[C@]314 [Compound 17, 17-cyclopropylmethyl-6,7-dehydro-4,5α-epoxy-3,14-dihydroxy-6,7,2',3'-quinolinomorphinan] | 2.7 | A similar relationship was observed | – | 16.3 | –

Source: patent US4816586A, “Delta opioid receptor antagonists” (Regents of the University of Minnesota, priority 1987, dated 1989)
